This passage reports IC50 results from patent US9745289B2, “Aldosterone synthase inhibitors” (Boehringer Ingelheim International GmbH, priority 2014, dated 2017).

The assay addresses cortisol synthase (CYP11B1) (Macaca fascicularis, UniProt A0A2K5ULY1). Description: Inhibition of Cortisol Synthesis. The assay is classed as biochemical, cynomolgus monkey. Conditions: cynomolgus adrenal gland mitochondria; 150 units of CYP11B1, 11-deoxycortisol as substrate, cortisol measured as product. As to the method:
The aldosterone synthase and cortisol synthase inhibition assays employ cynomolgus adrenal gland mitochondria as the source of aldosterone synthase (CYP11B2) and cortisol synthase (CYP11B1). […] Activity of CYP11B2 and CYP11B1 in these preparations is defined as the amount of enzyme that generates 1 pmol of product in one hour under the conditions described.
Assays are performed in 96-well format in a final volume of 60 μL/well, containing 100 mM potassium phosphate, pH 7.4, 1% (v/v) DMSO, and additionally, 2 μM of corticosterone and 50 units of CYP11B2 activity. Reactions are started by the addition of NADPH to 1 mM and allowed to proceed for 90 minutes at 37° C. Reactions are terminated by the addition of 60 μL of MeCN containing an internal standard for mass spectrometry. One hundred microliters are then transferred to a glass filter plate and centrifuged at 570×g for 5 minutes and the filtrate is collected. Reaction product aldosterone is quantified by mass spectrometry. To determine the assay blank value (0% activity), NADPH is omitted from some reactions.
Dose dependent inhibition is quantified by the inclusion of compound at various concentrations. Maximum activity (100%) is defined by reactions containing NADPH, but without compound.
Assays are performed as for aldosterone synthase except for the use of 150 units of CYP11B1, 11-deoxycortisol as substrate and cortisol measured as product.
As to `CNC(=O)c1cccc2c1OCC(c1cncc(C(F)(F)F)c1)O2` (single isomer, unassigned) [Cpd 28B, 2-(5-Trifluoromethyl-pyridin-3-yl)-2,3-dihydro-benzo[1,4]dioxine-5-carboxylic acid methylamide], the IC50 (commonly the concentration that gives 50% inhibition) is 6.1 µM. `CN(Cc1cncc(C2COc3c(cccc3C(N)=O)O2)c1)C(=O)C1CC1` (single isomer, unassigned) [Cpd 24A, 2-{5-[(Cyclopropanecarbonyl-methyl-amino)-methyl]-pyridin-3-yl}-2,3-dihydro-benzo[1,4]dioxine-5-carboxylic acid amide] showed a concentration for half-maximal inhibition (IC50) of 7 µM. The result for `N#Cc1cccc2c1OCC(c1cncc(CN3CCOC3=O)c1)O2` (single isomer, unassigned) [Cpd 34B, 2-[5-(2-Oxo-oxazolidin-3-ylmethyl)-pyridin-3-yl]-2,3-dihydro-benzo[1,4]dioxine-5-carbonitrile] reads > 30 µM.

With `NC(=O)c1cccc2c1OCC(c1cncc(CN3CCOCC3=O)c1)O2` (single isomer, unassigned) [Cpd 15B, 2-[5-(3-Oxo-morpholin-4-ylmethyl)-pyridin-3-yl]-2,3-dihydro-benzo[1,4]dioxine-5-carboxylic acid amide], the half-maximal inhibitory concentration (IC50) was > 30 µM. `NC(=O)c1cccc2c1OCC(c1cncc(CN3CCOC3=O)c1)O2` (single isomer, unassigned) [Cpd 31A, 2-[5-(2-Oxo-oxazolidin-3-ylmethyl)-pyridin-3-yl]-2,3-dihydro-benzo[1,4]dioxine-5-carboxylic acid amide]: the IC50 is > 30 µM. `N#Cc1cccc2c1OCC(c1cncc(CN3CCOCC3=O)c1)O2` (single isomer, unassigned) [Cpd 36B, 2-[5-(3-Oxo-morpholin-4-ylmethyl)-pyridin-3-yl]-2,3-dihydro-benzo[1,4]dioxine-5-carbonitrile]: the IC50 came to 5.8 µM. Compound `CS(=N)(=O)Cc1cncc(C2COc3c(C#N)cccc3O2)c1` (single isomer, unassigned) [Cpd 62BB, 2-(5-{[imino(methyl)oxo-λ^6-sulfanyl]methyl}pyridin-3-yl)-2,3-dihydro-1,4-benzodioxine-5-carbonitrile] showed an IC50 of 18 µM.

As to `NC(=O)c1cccc2c1OCC(c1cncc(CN3CCCC3=O)c1)O2` (single isomer, unassigned) [Cpd 5A, 2-[5-(2-Oxo-pyrrolidin-1-ylmethyl)-pyridin-3-yl]-2,3-dihydro-benzo[1,4]dioxine-5-carboxylic acid amide], the IC50 was > 30 µM. With `CS(=O)(=O)Cc1cncc(C2COc3c(cccc3C(N)=O)O2)c1` (single isomer, unassigned) [Cpd 8A, 2-(5-Methanesulfonylmethyl-pyridin-3-yl)-2,3-dihydro-benzo[1,4]dioxine-5-carboxylic acid amide], the 50% inhibitory concentration (IC50) is > 30 µM. The result for `CC(=O)N1CC[C@@H](Oc2cncc(C3COc4c(cccc4C(N)=O)O3)c2)C1` (single isomer, unassigned) [Cpd 18A] reads 16 µM; that for `CN1C(=O)CCC1c1cncc(C2COc3c(cccc3C(N)=O)O2)c1` (single isomer, unassigned) [Cpd 6BB, 2-[5-(-1-Methyl-5-oxo-pyrrolidin-2-yl)-pyridin-3-yl]-2,3-dihydro-benzo[1,4]dioxine-5-carboxylic acid amide], > 30 µM.

On to `CN1C(=O)CCC1c1cncc(C2COc3c(cccc3C(N)=O)O2)c1` (single isomer, unassigned) [Cpd 6AA, 2-[5-(-1-Methyl-5-oxo-pyrrolidin-2-yl)-pyridin-3-yl]-2,3-dihydro-benzo[1,4]dioxine-5-carboxylic acid amide], for which the IC50 amounted to 2.2 µM. `NC(=O)c1cccc2c1OCC(c1cncc(C3(O)CCC3)c1)O2` (single isomer, unassigned) [Cpd 26B, 2-[5-(1-Hydroxy-cyclobutyl)-pyridin-3-yl]-2,3-dihydro-benzo[1,4]dioxine-5-carboxylic acid amide] registered an IC50 of 0.67 µM. In the case of `CC(=O)N1CC[C@H](Oc2cncc(C3COc4c(cccc4C(N)=O)O3)c2)C1` (single isomer, unassigned) [Cpd 17A], the IC50 was > 30 µM.
